The values below come from PMC12107103, “MTA-cooperative PRMT5 inhibitors from cofactor-directed DNA-encoded library screens” (Proceedings of the National Academy of Sciences of the …, 2025).

A word on the IC50: it is the concentration that inhibits the measured activity by half.

The structures appear in SMILES notation.

The target in data set [1] is T1, PRMT5:MEP50 complex (Homo sapiens, UniProt O14744).
T1 construct: FLAG (N); purchased Reaction Biology Corp HMT-2-148; host or cells: insect cells (baculovirus)
In words: Thermal Stability Assay (TSA), thermal shift. Format: binding. To be noted: for stabilization of the complex by cofactor alone: cofactor added to apo complex (10 µM SIN, 10 µM SAM, or 5 µM MTA). The method, then: 0.1 µM PRMT5:MEP50 complex was incubated with compounds in a buffer consisting of 50 mM Tris-HCl pH 8.0, 50 mM NaCl, 1 mM TCEP, and 4xSypro Orange (Thermo Fisher, S-6650) in the absence or presence of cofactor (10 µM SIN, 10 µM SAM, or 5 µM MTA) and read on a StepOne™ Real-Time PCR machine (Applied Biosystems™) using a temperature ramp of 0.5 °C/min over a range of 25 to 95 °C.

Data set [2] has as its system MTAP null tumors. Also on record: method as in PMID 39282709. To be noted: patients with MTAP null tumors; cited from earlier work.
Data set [3] relates to HCT116 MTAP Null tumors. In words: Contralateral tumor model, tumor SDMA ELISA, MTAP-deleted tumors. The class given is in vivo, mouse. The settings on record: daily for 4 d. As for the experimental part:
(§1) Mice were implanted contralaterally on their flanks with parental and MTAP-deleted HCT116 cells such that each mouse would carry one WT and one MTAP-deleted tumor (Fig. 4A). This design eliminates variance in compound exposures between groups and allows direct assessment of MTAP status impact on compound effects. […] Four hours post the fourth dose, tumors were analyzed for SDMA content by ELISA. […] This confirms the MTA-selective action of AM-9934 in the tumor setting.
(§2) HCT116 colon carcinoma WT and MTAP^−^/^− isogenic cells were determined to be free of contamination with mycoplasma as well as a panel of murine viral pathogens in addition to being authenticated. Mice were inoculated s.c. with 2 × 10^6 HCT116 WT cells on the left flank and 2 × 10^6 HCT116 MTAP^−^/^− cells on the right flank in 33% Matrigel. Mice were enrolled once both tumors reached 250 to 500 mm^3 and randomized into vehicle vs. PRMT5i treated groups (N = 3). Vehicle or PRMT5i treatment started on day 14 postimplantation orally and treated once daily for 4 d. […]
(§3) Preparation of protein lysates from snap-frozen tumors was carried out as follows: samples were collected in a Covaris Tissue Tube (520001 TT1) to be used in conjunction with the CryoPrep. […] The protein concentration of each lysate was then determined using a BCA assay. […]

For data set [4], the system named is HCT116 MTAP WT tumors. Description: Contralateral tumor model, tumor SDMA ELISA, WT tumors. The settings on record: parental (MTAP WT) tumors, daily for 4 d. The class given is in vivo, mouse. As for the experimental part:
as §1, §2, §3
Background: An ELISA detects its analyte on a solid surface through an enzyme-linked reagent.

Data set [5] can be described thus: in vitro. To be noted: human, primary bone marrow-derived megakaryocytes.
The test system of data set [6] is Parental HCT116 cells (MTAP WT). Description: SDMA high-content imaging assay, parental cells. Format: cell-based. To be noted: Homo sapiens, HCT-116, 72 h, read-out: IC50, reduction of cellular SDMA. The method, then:
(§4) Cells were seeded into 96-well plates and incubated with compound for 3 d before fixing with 4% PFA (in 1× PBS) for 15 min. Cells were then washed once with Wash Buffer (1× PBS + 1% BSA + 0.2% Triton X-100), 100 µL/well for 15 min before blocking for 1 h Using Licor Odyssey blocking reagent ([…]) (100 µL/well). After three washes in Wash Buffer, cells were then stained for 2 h with anti-SDMA antibody (1:2,000 in Wash Buffer), washed three times in Wash Buffer, stained for 1 h in the dark using anti-rabbit Alexa-488 (1:2,000 in Wash Buffer) and Hoechst 33342 (1:5,000), followed by three washes in Wash Buffer before quantifying on a Cellomics Array Scan image system.

The test system of data set [7] is MTAP-deleted HCT116 cells. Description: SDMA high-content imaging assay, MTAP-deleted cells. Format: cell-based. The settings on record: Homo sapiens, HCT-116, 72 h, read-out: IC50, reduction of cellular SDMA. The method, then:
as §4

Data set [8] relates to Parental HCT116 cells (MTAP WT). Description: Cell viability (CellTiter-Glo), parental cells. Format: cell-based. The settings on record: Homo sapiens, read-out: IC50, cell viability. The method, then:
(§5) Parental (HD PAR-034) and MTAP^−^/^− (HD R02-033) colorectal cancer HCT116 cell lines were obtained from Horizon Discovery and maintained in RPMI1640 supplemented with 10% fetal bovine serum and antibiotics or in McCoy 5A supplemented with 10% fetal bovine serum (for mouse experiments). Other cell lines were obtained from ATCC and maintained according to instructions. Effects of compounds on cell viability were assessed using the CellTiter-Glo Kit from Promega (G7571) after 6 d of compound incubation and quantified using an EnVision® 2105 multimode plate reader (PerkinElmer) in luminescence mode.
A general note: ATP-based viability assays read luminescence as a measure of living cells.

The test system of data set [9] is MTAP-deleted HCT116 cells. Description: Cell viability (CellTiter-Glo), MTAP-deleted cells. The class given is cell-based. The settings on record: Homo sapiens, read-out: IC50, cell viability. As for the experimental part:
as §5

In data set [10] the test system is 24-cell line panel of MTAP WT and MTAP-deleted cell lines. In words: Cell viability across 24-cell line panel. The class given is cell-based. To be noted: MTAP WT vs MTAP-deleted. As for the experimental part:
as §5

Data set [11] has as its system arginine-, lysine-, and DNA-methyltransferases. In words: Methyltransferase panel profiling (BPS Bioscience): other methyltransferases. The settings on record: tested up to 10 µM.
Data set [12] in a line: Blood/tumor compound concentrations in contralateral tumor model. The class given is in vivo, mouse. The settings on record: 4 h post last dose, 50-200 mg/kg. As for the experimental part: HCT116 colon carcinoma WT and MTAP^−^/^− isogenic cells were determined to be free of contamination with mycoplasma as well as a panel of murine viral pathogens in addition to being authenticated. Mice were inoculated s.c. with 2 × 10^6 HCT116 WT cells on the left flank and 2 × 10^6 HCT116 MTAP^−^/^− cells on the right flank in 33% Matrigel. Mice were enrolled once both tumors reached 250 to 500 mm^3 and randomized into vehicle vs. PRMT5i treated groups (N = 3). Vehicle or PRMT5i treatment started on day 14 postimplantation orally and treated once daily for 4 d. Blood was collected at 4 h post–last dose (day 17 postimplantation) for pharmacokinetic analysis in Microtainer tubes containing lithium heparin. Blood was centrifuged at 7,000 rpm at 4 °C for 7 min. Tumors from both sides were also collected and snap-frozen for pharmacokinetic analysis and SDMA ELISA. Plasma and tumors were collected and stored at −80 °C until analysis.

T1 sequence (O14744 2-637 limits assumed): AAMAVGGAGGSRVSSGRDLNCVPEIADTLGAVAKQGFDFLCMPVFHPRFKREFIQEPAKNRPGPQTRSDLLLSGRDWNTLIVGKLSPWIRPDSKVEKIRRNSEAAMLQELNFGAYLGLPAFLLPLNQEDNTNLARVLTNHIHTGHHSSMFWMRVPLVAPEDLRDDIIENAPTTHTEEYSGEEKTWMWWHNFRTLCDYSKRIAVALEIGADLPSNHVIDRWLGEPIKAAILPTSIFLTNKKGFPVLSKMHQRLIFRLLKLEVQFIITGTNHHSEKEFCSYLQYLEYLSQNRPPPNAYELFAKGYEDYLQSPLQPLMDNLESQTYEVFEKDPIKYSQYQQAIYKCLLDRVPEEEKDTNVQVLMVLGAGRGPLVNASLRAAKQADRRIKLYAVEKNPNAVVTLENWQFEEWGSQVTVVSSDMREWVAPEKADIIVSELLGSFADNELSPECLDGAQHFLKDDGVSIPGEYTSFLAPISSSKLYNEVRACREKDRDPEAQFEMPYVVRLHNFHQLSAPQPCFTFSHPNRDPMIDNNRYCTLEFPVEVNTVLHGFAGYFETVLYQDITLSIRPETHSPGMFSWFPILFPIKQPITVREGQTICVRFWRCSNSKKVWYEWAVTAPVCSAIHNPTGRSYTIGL
T1 sequence (Q9BQA1 2-342 partner limits assumed): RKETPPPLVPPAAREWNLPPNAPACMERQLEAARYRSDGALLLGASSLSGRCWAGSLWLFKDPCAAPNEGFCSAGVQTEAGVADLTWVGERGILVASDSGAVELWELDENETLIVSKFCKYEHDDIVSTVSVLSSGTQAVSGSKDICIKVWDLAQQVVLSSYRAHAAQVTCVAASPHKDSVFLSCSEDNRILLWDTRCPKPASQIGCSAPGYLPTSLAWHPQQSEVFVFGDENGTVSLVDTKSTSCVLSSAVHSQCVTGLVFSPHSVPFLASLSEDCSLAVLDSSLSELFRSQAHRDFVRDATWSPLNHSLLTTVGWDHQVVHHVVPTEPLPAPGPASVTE

Regarding `CSC[C@H]1O[C@@H](n2cnc3c(N)ncnc32)[C@H](O)[C@@H]1O` [MTA, methylthioadenosine], the “stabilization of the complex by cofactor alone” value (from here on “stabilization of the complex”) in data set [1] is under 0.5 K.

Turning to `C[S+](CC[C@H](N)C(=O)[O-])C[C@H]1O[C@@H](n2cnc3c(N)ncnc32)[C@H](O)[C@@H]1O` (some centres unmarked) [SAM, S-Adenosyl methionine], the “stabilization of the complex” value in [1] is listed as under 0.5 K.

Regarding `Nc1nc2cnc(C(=O)N3CCOC[C@@H]3c3ccc(C(F)(F)F)cc3)cc2c2c1COC2` [AMG 193], the “antitumor responses in patients” value in data set [2] is “initial antitumor responses”.

As to `CC(=O)N1CCC(Nc2cc(C(=O)NC[C@H](O)CN3CCc4ccccc4C3)ncn2)CC1` [GSK3326595], the “suppression of tumor SDMA levels (in words)” value in data set [3] and in data set [4] was “marked suppression” throughout.

For the molecule `Nc1ncnc2c1ncn2[C@@H]1O[C@H](C[C@@H](N)CC[C@H](N)C(=O)O)[C@@H](O)[C@H]1O` [SIN, sinefungin], the “stabilization of the complex” value in [1] is under 0.5 K.

Turning to `Cc1cc2cc(C(=O)N(Cc3ccc(C(F)(F)F)cn3)CC(C)C)ccc2nc1N` [AM-9934], the IC50 in data set [5] turned out to be 3100 nM; in data set [6], 143 nM; in [7] it was 9.2 nM; in [8] (HCT-116, […]), 4100 nM; in data set [9] (HCT-116, […]) it was 160 nM. Also, the “suppression of tumor SDMA levels (in words)” value is reported as “all three doses reached significant levels of SDMA suppression” in [3] and “insignificant at lower doses” in data set [4]. For the same molecule, the “stabilization in the presence of MTA” value in data set [1] (MTA-bound complex, compound 0.1 µM) is on record as 9.3 K. The “discrimination of viability potency by MTAP status” value in data set [10] is reported as “significantly higher potency toward MTAP-deleted cell lines”. In addition, in [11], the “inhibitory activity toward the other tested methyltransferases” value is listed as “No significant inhibitory activity”. In addition, in [12], the “exposures (blood/tumor compound concentrations)” value is reported as “exposures increased with dose”.

With `O=C(NC[C@H](O)CN1CCc2ccccc2C1)c1cc(NC2COC2)ncn1` [EPZ015666], the IC50 turned out to be 360 nM in data set [5]; 9.6 nM in data set [6] (parental HCT116, 3 d incubation); 4.3 nM in [7] (MTAP-deleted HCT116, 3 d incubation); 890 nM in data set [8] (HCT-116, parental HCT116, 6 d incubation); 600 nM in [9] (HCT-116, MTAP-deleted HCT116, 6 d incubation). Also, the “stabilization of the MTA-bound complex” value in [1] (MTA-bound complex, compound 10 µM) is on record as “no stabilization”. The “stabilization of the SAM-bound complex” value in [1] (SAM-bound complex, compound 10 µM) is recorded as “showed an interaction”. Further, the “stabilization of the SIN-bound complex” value in data set [1] (SIN-bound complex, compound 10 µM) was “showed an interaction”. Also, in [10], the “discrimination of viability potency by MTAP status” value is “did not significantly discriminate”.
